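Test compounds were applied to cells in 96-well plates for 48 hours at 5 doses. At the TGI there is no net growth.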
Tests used:
Test in all cases: inhibition of tumour cell growth, NCI panel, 48 h
786-0 renal = system: 786-0 renal
BT-549 breast = system: BT-549 breast
EKVX NSCLC = system: EKVX NSCLC
HCC-2998 colon = system: HCC-2998 colon
HS 578T breast = system: HS 578T breast
K-562 leukemia = system: K-562 leukemia
M14 melanoma = system: M14 melanoma
MDA-MB-231 breast = system: MDA-MB-231 breast
NCI-H226 lung = system: NCI-H226 lung
NCI-H23 lung = system: NCI-H23 lung
OVCAR-5 ovarian = system: OVCAR-5 ovarian
TK-10 renal = system: TK-10 renal
UACC-257 melanoma = system: UACC-257 melanoma
CCRF-CEM leukemia = system: CCRF-CEM leukemia
HCT-15 colon = system: HCT-15 colon
LOX IMVI melanoma = system: LOX IMVI melanoma
MDA-MB-435 = system: MDA-MB-435
NCI/ADR-RES ovarian = system: NCI/ADR-RES ovarian
OVCAR-3 ovarian = system: OVCAR-3 ovarian

CC(NC(=O)OC(C)(C)C)C(=O)NC(Cc1ccccc1)C(=O)NCC(=O)Oc1c(Cl)c(Cl)c(Cl)c(Cl)c1Cl (stereo unspecified) gave a TGI (786-0 renal) of 46.4 µM, a TGI (BT-549 breast) of 69.3 µM and a TGI (EKVX NSCLC) of 48.7 µM. For the same molecule, the TGI (HCC-2998 colon) was 30.6 µM, the TGI (HS 578T breast) was greater than 100 µM and the TGI (K-562 leukemia) was greater than 100 µM. For the same molecule, the TGI (M14 melanoma) was 73.8 µM, the TGI (MDA-MB-231 breast) was 36 µM and the TGI (NCI-H226 lung) was 43.5 µM. The TGI (NCI-H23 lung) was 40.7 µM, the TGI (OVCAR-5 ovarian) was 42.8 µM and the TGI (TK-10 renal) was 71.5 µM. The TGI (UACC-257 melanoma) was 54.5 µM.
Cc1c/c(=N/NC(=O)c2ccncc2)n2nc(N)sc2n1 showed a TGI (786-0 renal) greater than 100 µM, a TGI (BT-549 breast) greater than 100 µM and a TGI (CCRF-CEM leukemia) greater than 100 µM. It also gave a TGI (EKVX NSCLC) greater than 100 µM, a TGI (HCC-2998 colon) greater than 100 µM and a TGI (HCT-15 colon) greater than 100 µM. It also gave a TGI (K-562 leukemia) greater than 100 µM, a TGI (LOX IMVI melanoma) greater than 100 µM and a TGI (M14 melanoma) greater than 100 µM. The TGI (MDA-MB-231 breast) was greater than 100 µM, the TGI (MDA-MB-435) was greater than 100 µM and the TGI (NCI-H226 lung) was greater than 100 µM. For the same molecule, the TGI (NCI-H23 lung) was greater than 100 µM, the TGI (NCI/ADR-RES ovarian) was greater than 100 µM and the TGI (OVCAR-3 ovarian) was greater than 100 µM. It also gave a TGI (OVCAR-5 ovarian) greater than 100 µM and a TGI (UACC-257 melanoma) greater than 100 µM.
For CC(C)(C)OC(=O)NC(CS(=O)(=O)O)C(=O)O (stereo unspecified), the TGI (786-0 renal) was greater than 100 µM, the TGI (BT-549 breast) was greater than 100 µM and the TGI (CCRF-CEM leukemia) was greater than 100 µM. It also gave a TGI (EKVX NSCLC) greater than 100 µM, a TGI (HCC-2998 colon) greater than 100 µM and a TGI (HCT-15 colon) greater than 100 µM. It also gave a TGI (K-562 leukemia) greater than 100 µM, a TGI (LOX IMVI melanoma) greater than 100 µM and a TGI (M14 melanoma) greater than 100 µM. It also gave a TGI (MDA-MB-231 breast) greater than 100 µM, a TGI (MDA-MB-435) greater than 100 µM and a TGI (NCI-H226 lung) greater than 100 µM. It also gave a TGI (NCI-H23 lung) greater than 100 µM, a TGI (NCI/ADR-RES ovarian) greater than 100 µM and a TGI (OVCAR-3 ovarian) greater than 100 µM. The TGI (OVCAR-5 ovarian) was greater than 100 µM, the TGI (TK-10 renal) was greater than 100 µM and the TGI (UACC-257 melanoma) was greater than 100 µM.
CCOC(=O)C(NC(=O)c1ccccc1)(Nc1ccc(S(=O)(=O)Nc2cc(C)nc(C)n2)cc1)C(F)(F)F (stereo unspecified) showed a TGI (786-0 renal) greater than 100 µM, a TGI (CCRF-CEM leukemia) greater than 100 µM and a TGI (EKVX NSCLC) greater than 100 µM. It also gave a TGI (HCT-15 colon) greater than 100 µM, a TGI (HS 578T breast) greater than 100 µM and a TGI (K-562 leukemia) greater than 100 µM. For the same molecule, the TGI (LOX IMVI melanoma) was greater than 100 µM, the TGI (M14 melanoma) was greater than 100 µM and the TGI (MDA-MB-231 breast) was greater than 100 µM. The TGI (MDA-MB-435) was greater than 100 µM, the TGI (NCI-H226 lung) was greater than 100 µM and the TGI (NCI-H23 lung) was greater than 100 µM. It also gave a TGI (NCI/ADR-RES ovarian) greater than 100 µM, a TGI (OVCAR-3 ovarian) greater than 100 µM and a TGI (OVCAR-5 ovarian) greater than 100 µM. It also gave a TGI (TK-10 renal) greater than 100 µM and a TGI (UACC-257 melanoma) greater than 100 µM.
O=C(N/N=C/c1ccc(Cl)cc1)c1ccccc1Nc1ccccc1C(=O)N/N=C/c1ccc(Cl)cc1 gave a TGI (786-0 renal) greater than 100 µM, a TGI (BT-549 breast) greater than 100 µM and a TGI (CCRF-CEM leukemia) greater than 100 µM. For the same molecule, the TGI (EKVX NSCLC) was greater than 100 µM, the TGI (HCC-2998 colon) was greater than 100 µM and the TGI (HCT-15 colon) was greater than 100 µM. It also gave a TGI (K-562 leukemia) greater than 100 µM, a TGI (LOX IMVI melanoma) greater than 100 µM and a TGI (M14 melanoma) greater than 100 µM. It also gave a TGI (MDA-MB-231 breast) greater than 100 µM, a TGI (MDA-MB-435) greater than 100 µM and a TGI (NCI-H226 lung) greater than 100 µM. It also gave a TGI (NCI-H23 lung) greater than 100 µM, a TGI (NCI/ADR-RES ovarian) greater than 100 µM and a TGI (OVCAR-3 ovarian) greater than 100 µM. The TGI (OVCAR-5 ovarian) was greater than 100 µM, the TGI (TK-10 renal) was greater than 100 µM and the TGI (UACC-257 melanoma) was greater than 100 µM.
With O=C1OCCC[C@H]2O[C@@H](COCc3ccccc3)C[C@@H]12 the TGI (786-0 renal) was greater than 100 µM, the TGI (CCRF-CEM leukemia) was greater than 100 µM and the TGI (HCT-15 colon) was greater than 100 µM. The TGI (HS 578T breast) was greater than 100 µM, the TGI (K-562 leukemia) was greater than 100 µM and the TGI (M14 melanoma) was greater than 100 µM. For the same molecule, the TGI (MDA-MB-231 breast) was greater than 100 µM, the TGI (MDA-MB-435) was greater than 100 µM and the TGI (NCI-H226 lung) was greater than 100 µM. The TGI (NCI-H23 lung) was greater than 100 µM, the TGI (NCI/ADR-RES ovarian) was greater than 100 µM and the TGI (OVCAR-3 ovarian) was greater than 100 µM. It also gave a TGI (OVCAR-5 ovarian) greater than 100 µM, a TGI (TK-10 renal) greater than 100 µM and a TGI (UACC-257 melanoma) greater than 100 µM.
Molecule COc1ccc2nc3c([N+](=O)[O-])ccc(NCCN(C)C)c3c(NCCN(C)C)c2c1 has a TGI (786-0 renal) of 1.98 µM, a TGI (CCRF-CEM leukemia) of 1.78 µM and a TGI (EKVX NSCLC) of 4.59 µM. It also gave a TGI (HCC-2998 colon) of 2.25 µM, a TGI (HCT-15 colon) of 2.59 µM and a TGI (K-562 leukemia) of 3.42 µM. It also gave a TGI (LOX IMVI melanoma) of 3.11 µM, a TGI (M14 melanoma) greater than 10 µM and a TGI (MDA-MB-231 breast) of 2.67 µM. The TGI (MDA-MB-435) was 3.01 µM, the TGI (NCI-H23 lung) was 3.04 µM and the TGI (TK-10 renal) was greater than 10 µM. It also gave a TGI (UACC-257 melanoma) greater than 10 µM.
